{
  "source": "patent US20150051210A1",
  "about": "“Tyrosine Kinase Inhibitor Combinations and their Use” (Novartis AG, priority 2012, published 2015)",
  "molecules": {"B1": {"name": "FGF7: Fibroblast Growth Factor 7 (activator of FGFR) (protein, UniProt P21781 32-194, looked up)", "Fibroblast growth factor 7": "CNDMTPEQMATNVNCSSPERHTRSYDYMEGGDIRVRRLFCRTQWYLRIDKRGKVKGTQEMKNNYNIMEIRTVAVGIVAIKGVESEFYLAMNKEGKLYAKKECNEDCNFKELILENHYNTYASAKWTHNGGEMFVALNQKGIPVRGKKTKKEQKTAHFLPMAIT"}},
  "assay_type_in_all_cases": "cell-based",
  "key": {"[1]": {"test_system": "phosphorylation of MET, FRS2, ERK, AKT in RT-112", "assay": "Western blots of protein phosphorylation in RT-112 cells", "experimental": "(§1) Western Blots (Figures not Shown) MKN-45 and RT-112 cells were treated in 6-well plates for 2 hours and 18 hours in the presence or absence of purified protein (rhFGF7, rhNRG1-31, or rhHGF), and/or inhibitor (Cpd. B, Cpd. A, BGJ398). Following wash with ice-cold PBS, cells were lysed with RIPA buffer (Thermo) containing phosphatase (Thermo) and proteinase (Roche) inhibitor cocktails. Total protein was quantified by bicinchoninic protein assay (Pierce). Aliquots of 20 μg were resolved by electrophoresis on NuPAGE SDS-PAGE 4-12% BIS-Tris gels before transfer to nitrocellulose membranes. Membranes were blocked for one hour at room temperature before overnight incubation at 4° C. with the following primary antibodies (source rabbit, 1:1000 final dilution): anti-phospho-Akt (Ser473), anti-phospho-MET (Tyr1234/1235), anti-phospho-MAPK/ERK(1/2) (Thr202/Tyr204), anti-AKT, anti-MAPK/Erk(1/2), and anti-α/β-Tubulin . Anti-MET was probed at 1:800 final dilution An internal antibody was used for phospho-FRS2(Y346) (1:1500 dilution). Membranes were then washed 3 times in PBS+0.1% Tween before addition of secondary antibody, IRDye 680LT goat anti-rabbit IgG , dilution 1:15000. After one hour at room temperature, membranes were washed and bands were visualized using an Odyssey Infrared Imager."}, "[2]": {"test_system": "RT-112 cells", "assay": "RT-112 Dual Inhibition: reversal of rescue with selective inhibitors, CellTiter-Glo cell viability", "details": "for activity on cell viability (reversal of rescue): RT-112, rhHGF or rhNRG-1 250 ng/ml, 96 h, BGJ398 100 nM, Cpd. A/Cpd. B 500 nM, Lapatinib 1.5 μM, FIG. 5, FIG. 6", "experimental": "RT-112 Secretome screen: The basic format was identical to the MKN-45 secretome screen with slight modifications. RT-112 cells were plated in EMEM+10% in white, tissue-culture treated 384-well plates at 1000 cells/20 μl/well and allowed to attach overnight. Supernatant from library-transfected HEK293T/17 cells was transferred as described above for the MKN-45 secretome screen. Purified proteins rhNRG1-31 and rhTGFα were added as positive controls, at a final concentration of 150 ng/ml. Following addition of supernatants and purified protein controls, BGJ398 diluted in DMEM was added at 10 μl/well for a final assay concentration of 100 nM. Cell viability was measured after 72 hours using CellTiter-Glo as described above. (FIG. 2)\nRT-112 Dual Inhibition: The format for the RT-112 dual inhibition experiment was similar to that described for MKN-45 with the following modifications. RT-112 cells were plated at 1000 cells/20 μl/well. Solutions of rhHGF and rhNRG-1 were added to achieve a final concentration of 250 ng/ml. Single and dual inhibition conditions were prepared as follows: BGJ398, Cpd. A, Cpd. B, Lapatinib, BGJ398 and Cpd. A, BGJ398 and Cpd. B, BGJ398 and Lapatinib. Final concentrations for each compound, whether single or combined, were as follows: 100nM for BGJ398, 500 nM for Cpd. A and Cpd. B, and 1.5 μM for Lapatinib. After 96 hours cell viability was measured by CellTiter-Glo as previously described. (FIG. 5, FIG. 6)."}, "[3]": {"test_system": "phosphorylation of MET, ERK1/2, AKT, FRS2 in MKN-45", "assay": "Western blots of protein phosphorylation in MKN-45 cells", "experimental": "as §1"}, "[4]": {"test_system": "MKN-45 cells", "assay": "MKN-45 Dual Inhibition: reversal of rescue with selective inhibitors, CellTiter-Glo cell viability", "details": "for activity on cell viability (reversal of rescue): MET-dependent MKN-45, rhFGF7 or rhNRG-1 250 ng/ml, 96 h, Cpd. A/Cpd. B 100 nM, BGJ398 500 nM, Lapatinib 1.5 μM, FIG. 3, FIG. 4", "experimental": "MKN-45 Secretome screen: MKN-45 cells were plated in white, tissue-culture treated 384-well plates (Greiner) at 3000 cells/20 μl DMEM +10% FBS/well and allowed to attach overnight. Supernatant from library-transfected HEK293T/17 cells was then transferred to the MKN-45 cells at 30 μl/well using a Biomek FX liquid handler (Beckman Coulter) with pipetting speeds reduced to minimize disturbance of the HEK293T/17 monolayer. As positive controls, the purified proteins rhEGF and rhNRG1-31 (R&D Systems) were added to isolated wells on each plate for a final concentration of 150 ng/ml; supernatant from mock-transfected HEK293T/17 wells were transferred as neutral controls. Following addition of supernatants and purified protein controls, Cpd. A diluted in DMEM was added at 10 μl/well for a final assay concentration of 100 nM. After 96 hours incubation, growth was measured using the CellTiter-Glo luminescent cell viability assay system (Promega). In brief, 30 μl CellTiter-Glo reagent was added to all wells, then incubated for 15 minutes at room temperature before reading luminescence on a Viewlux plate reader (Perkin Elmer). (FIG. 1)\nMKN-45 Dual Inhibition: MKN-45 cells were seeded at 3000 cells/20 μl/well in 384-well plates and incubated overnight. Solutions of rhFGF7 and rhNRG-1 were prepared in DMEM+10%FBS, then added at 30 μl/well to achieve a final concentration of 250 ng/ml (one purified protein per treatment). The following single and dual inhibition treatments were prepared in DMEM and added at […]: Cpd. A, Cpd. B, BGJ398, Lapatinib, Cpd. A and BGJ398, Cpd. B and BGJ398, Cpd. A and Lapatinib, Cpd. B and Lapatinib. Final concentrations for each compound, whether single or combined, were as follows: 100 nM for Cpd. A and Cpd. B, 500 nM for BGJ398 and 1.5 μM for Lapatinib. After 96 hours cell viability was measured by CellTiter-Glo as previously described. (FIG. 3, FIG. 4)"}},
  "data": [
    {"molecule": "C/C(=N\\NC(N)=O)c1ccc2ncc(Cc3cc4cccnc4cc3F)n2n1", "note": "[Cpd. A, (E)-2-(1-(3-((7-fluoroquinolin-6-yl)methyl)imidazo[1,2-b]pyridazin-6-yl)ethylidene)hydrazinecarboxamide]", "values": [
      {"measurement": "prevention of HGF rescue of ERK phosphorylation", "setting": "[1]; RT-112, BGJ398 plus HGF, simultaneous addition", "result": "prevented this rescue effect"},
      {"measurement": "MET phosphorylation", "setting": "[1]; RT-112, absence of ligands", "result": "specifically inhibited MET phosphorylation"},
      {"measurement": "activity on cell viability (reversal of rescue)", "setting": "[2]", "result": "not sufficient"},
      {"measurement": "effect on phosphorylation of several proteins (MET, ERK1/2, AKT, FRS2)", "setting": "[3]; MKN-45, absence of added ligands", "result": "profound effect"},
      {"measurement": "activity on cell viability (reversal of rescue)", "setting": "[4]", "result": "active"}
    ]},
    {"molecule": "HGF: Hepatocyte Growth Factor", "values": [
      {"measurement": "ERK phosphorylation after addition of ligand", "setting": "[1]; RT-112, in the presence of BGJ398", "result": "restored ERK phosphorylation"},
      {"measurement": "rescue of cell proliferation by recombinant ligand", "setting": "[2]; RT-112 in presence of FGFR inhibitor", "result": "reproduce the rescue effects"}
    ]},
    {"molecule": "CS(=O)(=O)CCNCc1ccc(-c2ccc3ncnc(Nc4ccc(OCc5cccc(F)c5)c(Cl)c4)c3c2)o1", "note": "[lapatinib, reference compound]", "values": [
      {"measurement": "sensitivity of NRG1-caused restoration of ERK phosphorylation to inhibitor", "setting": "[1]; RT-112", "result": "lapatinib-sensitive"},
      {"measurement": "activity on cell viability (reversal of rescue)", "setting": "[2]", "result": "not sufficient"},
      {"measurement": "reversal of FGF7 rescue effect on FRS2 and ERK1/2 phosphorylation", "setting": "[3]; MKN-45, MET inhibitor plus FGF7", "result": "not"},
      {"measurement": "sensitivity of NRG1-evoked phosphorylation re-activation to inhibitor", "setting": "[3]; MKN-45, MET inhibitor plus NRG1", "result": "specifically sensitive"},
      {"measurement": "activity on cell viability (reversal of rescue)", "setting": "[4]", "result": "not sufficient"},
      {"measurement": "reversal of ligand-mediated rescue of proliferation", "setting": "[4]; MKN-45 in presence of MET inhibitor Cpd. A or Cpd. B, FIGS. 3, 4", "result": "reversed rescue by NRG1"}
    ]},
    {"molecule": "B1", "values": [
      {"measurement": "AKT phosphorylation after addition of ligand", "setting": "[3]; MKN-45, MET inhibited", "result": "no or minimal effect on AKT phosphorylation"},
      {"measurement": "ERK1/2 phosphorylation after addition of ligand", "setting": "[3]; MKN-45, MET inhibited", "result": "partially re-activated ERK1/2 phosphorylation"},
      {"measurement": "FRS2 phosphorylation after addition of ligand", "setting": "[3]; MKN-45, MET inhibited", "result": "re-activated FRS2 phosphorylation"}
    ]}
  ]
}
